Data published in PubChem BioAssay AID248 (DTP/NCI, 2004).
Several values for one entry are separate records, joined by “and”; a condition that tells them apart may be missing. Equal entries are not always repeated. Toxic doses and inconclusive results are not listed. Cut-off read from the data, not from the text of the source: active = T/C of 150% or more; inactive = T/C below 125%.

System: L1210 leukemia ip in BDF1 mice, survival T/C
Assay: NCI In Vivo Anticancer Drug Screen. Data for tumor model L1210 Leukemia (intraperitoneal) in B6D2F1 (BDF1) mice
Conditions: endpoint: mean survival time, higher = longer survival
How it was run: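 Read-out is survival time, reported as the treated-group measurement over the vehicle-control measurement.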

[1] = dose: 100.0 mg/kg/injection, schedule: Q01DX001 (ip), vehicle: other
[2] = dose: 100.0 mg/kg/injection, schedule: Q04DX002 (ip), vehicle: Klucel (hydroxypropylcellulose) (HPC)
[3] = dose: 200.0 mg/kg/injection, schedule: Q01DX001 (ip), vehicle: other
[4] = dose: 200.0 mg/kg/injection, schedule: Q04DX002 (ip), vehicle: Klucel (hydroxypropylcellulose) (HPC)
[5] = dose: 400.0 mg/kg/injection, schedule: Q01DX001 (ip), vehicle: other
[6] = dose: 400.0 mg/kg/injection, schedule: Q04DX002 (ip), vehicle: Klucel (hydroxypropylcellulose) (HPC)
[7] = dose: 100.0 mg/kg/injection, schedule: Q01DX009 (ip), vehicle: Klucel (hydroxypropylcellulose) (HPC)
[8] = dose: 200.0 mg/kg/injection, schedule: Q01DX009 (ip), vehicle: Klucel (hydroxypropylcellulose) (HPC)
[9] = dose: 400.0 mg/kg/injection, schedule: Q01DX009 (ip), vehicle: Klucel (hydroxypropylcellulose) (HPC)
[10] = dose: 75.0 mg/kg/injection, schedule: Q01DX001 (ip), vehicle: saline
[11] = dose: 150.0 mg/kg/injection, schedule: Q01DX001 (ip), vehicle: saline
[12] = dose: 100.0 mg/kg/injection, schedule: Q01DX001 (ip), vehicle: saline
[13] = dose: 100.0 mg/kg/injection, schedule: Q01DX009 (ip), vehicle: saline
[14] = dose: 100.0 mg/kg/injection, schedule: Q04DX003 (ip), vehicle: saline with Tween-80

Measured: T/C

O=C(Nc1ccccc1)C(Cl)(Cl)Cl
inactive: dose: 50.0 mg/kg/injection, schedule: Q01DX001 (ip), vehicle: other 104 % of control | [1] 102 % of control | [2] 106 % of control | [3] 102 % of control | [4] 92 % of control | [5] 104 % of control | [6] 89 % of control

N=C(c1ccccc1)c1ccccc1S(=O)(=O)Nc1ccccc1
inactive: dose: 100.0 mg/kg/injection, schedule: Q01DX001 (ip), vehicle: carboxymethylcellulose (CMC) 95 % of control | dose: 200.0 mg/kg/injection, schedule: Q01DX001 (ip), vehicle: carboxymethylcellulose (CMC) 101 % of control | dose: 400.0 mg/kg/injection, schedule: Q01DX001 (ip), vehicle: carboxymethylcellulose (CMC) 95 % of control

O=C(NCCCCCCNC(=O)Oc1ccccc1F)Oc1ccccc1F
inactive: [7] 102 % of control | [8] 97 % of control | [9] 91 % of control

CCS(=O)(=O)Cc1ccccc1
inactive: [7] 100 % of control | [8] 106 % of control | [9] 102 % of control

Cc1ccc(Nc2c3ccccc3nc3ccccc23)cc1C
inactive: dose: 25.0 mg/kg/injection, schedule: Q01DX009 (ip), vehicle: Klucel (hydroxypropylcellulose) (HPC) 94 % of control | dose: 50.0 mg/kg/injection, schedule: Q01DX009 (ip), vehicle: Klucel (hydroxypropylcellulose) (HPC) 91 % of control | [7] 102 % of control | [2] 100 % of control

O=C(c1ccccc1)c1ccc(Cl)c(Cl)c1
inactive: dose: 100.0 mg/kg/injection, schedule: Q04DX003 (ip), vehicle: Klucel (hydroxypropylcellulose) (HPC) 98 % of control | dose: 200.0 mg/kg/injection, schedule: Q04DX003 (ip), vehicle: Klucel (hydroxypropylcellulose) (HPC) 89 % of control | dose: 400.0 mg/kg/injection, schedule: Q04DX003 (ip), vehicle: Klucel (hydroxypropylcellulose) (HPC) 93 % of control

O=Cc1cc(Cl)cc(Cl)c1OC(=O)c1ccccc1
inactive: [7] 97 % of control | [8] 92 % of control

Cc1cn(C2CC(O)C(CF)O2)c(=O)[nH]c1=O (stereo not given)
inactive: dose: 100.0 mg/kg/injection, schedule: Q01DX005 (ip), vehicle: saline 117 % of control | dose: 200.0 mg/kg/injection, schedule: Q01DX005 (ip), vehicle: saline 122 % of control

CCOP(N)(=S)OCC
inactive: [10] 102 % of control | [11] 102 % of control

O=C(Nc1ccc(C2=NCCCN2)cc1)N1CCN(C(=O)Nc2ccc(C3=NCCCN3)cc2)CC1
inactive: dose: 10.0 mg/kg/injection, schedule: Q01DX Z (ip), vehicle: water 106 % of control | dose: 20.0 mg/kg/injection, schedule: Q01DX Z (ip), vehicle: water 120 % of control

CC(C)OC(=O)c1cc(O)c(O)c(O)c1
inactive: [10] 102 % of control | [11] 94 % of control | dose: 300.0 mg/kg/injection, schedule: Q01DX001 (ip), vehicle: saline 94 % of control

O=C(O)c1cccc2c1C(=O)c1ccccc1-2
inactive: dose: 100.0 mg/kg/injection, schedule: Q01DX001 (ip), vehicle: Klucel (hydroxypropylcellulose) (HPC) 93 % of control | dose: 200.0 mg/kg/injection, schedule: Q01DX001 (ip), vehicle: Klucel (hydroxypropylcellulose) (HPC) 106 % of control | dose: 400.0 mg/kg/injection, schedule: Q01DX001 (ip), vehicle: Klucel (hydroxypropylcellulose) (HPC) 101 % of control

CC1=NC(C(=O)Cl)NN1c1ccccc1 (stereo not given)
inactive: dose: 25.0 mg/kg/injection, schedule: Q01DX009 (ip), vehicle: saline 101 % of control | dose: 25.0 mg/kg/injection, schedule: Q04DX003 (ip), vehicle: saline with Tween-80 96 % of control | dose: 50.0 mg/kg/injection, schedule: Q01DX009 (ip), vehicle: saline 97 % of control | dose: 50.0 mg/kg/injection, schedule: Q04DX003 (ip), vehicle: saline with Tween-80 101 % of control | [12] 93 % of control | [13] 95 % of control | [14] 98 % of control

CCN(CC)Cc1ccccc1COC(=O)c1ccc([N+](=O)[O-])cc1
inactive: [2] 97 % of control | [4] 94 % of control | [6] 101 % of control

CC(CC(=O)c1cc(Cl)ccc1O)CC(C)(C)C (stereo not given)
inactive: dose: 75.0 mg/kg/injection, schedule: Q01DX009 (ip), vehicle: Klucel (hydroxypropylcellulose) (HPC) 114 % of control | [2] 97 % of control | dose: 150.0 mg/kg/injection, schedule: Q01DX009 (ip), vehicle: Klucel (hydroxypropylcellulose) (HPC) 97 % of control | [4] 93 % of control | dose: 300.0 mg/kg/injection, schedule: Q01DX009 (ip), vehicle: Klucel (hydroxypropylcellulose) (HPC) 100 % of control | [6] 104 % of control

S=C(NCc1ccccc1)[S][Sn]([c]1ccccc1)([c]1ccccc1)[c]1ccccc1
inactive: dose: 5.0 mg/kg/injection, schedule: Q01DX001 (ip), vehicle: steriod suspending solution 101 % of control | dose: 10.0 mg/kg/injection, schedule: Q01DX001 (ip), vehicle: steriod suspending solution 103 % of control | dose: 20.0 mg/kg/injection, schedule: Q01DX001 (ip), vehicle: steriod suspending solution 93 % of control | dose: 40.0 mg/kg/injection, schedule: Q01DX001 (ip), vehicle: steriod suspending solution 113 % of control | dose: 80.0 mg/kg/injection, schedule: Q01DX001 (ip), vehicle: steriod suspending solution 104 % of control

O=S(=O)(O)C(O)C(Cl)(Cl)Cl (stereo not given)
inactive: [12] 103 % of control | [13] 98 % of control | dose: 100.0 mg/kg/injection, schedule: Q04DX003 (ip), vehicle: saline 107 % of control | dose: 200.0 mg/kg/injection, schedule: Q01DX001 (ip), vehicle: saline 101 % of control | dose: 200.0 mg/kg/injection, schedule: Q01DX009 (ip), vehicle: saline 101 % of control | dose: 200.0 mg/kg/injection, schedule: Q04DX003 (ip), vehicle: saline 96 % of control | dose: 400.0 mg/kg/injection, schedule: Q01DX001 (ip), vehicle: saline 98 % of control | dose: 400.0 mg/kg/injection, schedule: Q01DX009 (ip), vehicle: saline 98 % of control | dose: 400.0 mg/kg/injection, schedule: Q04DX003 (ip), vehicle: saline 95 % of control

Cc1cc(OC(=O)Nc2ccc(Cl)cc2)ccc1Cl
inactive: [1] 103 % of control | dose: 100.0 mg/kg/injection, schedule: Q01DX009 (ip), vehicle: other 93 % of control and 100 % of control | [2] 106 % of control | dose: 100.0 mg/kg/injection, schedule: Q04DX002 (ip), vehicle: other 95 % of control and 91 % of control | dose: 100.0 mg/kg/injection, schedule: Q04DX003 (ip), vehicle: other 96 % of control | [3] 96 % of control | dose: 200.0 mg/kg/injection, schedule: Q01DX009 (ip), vehicle: other 93 % of control and 95 % of control | [4] 117 % of control | dose: 200.0 mg/kg/injection, schedule: Q04DX002 (ip), vehicle: other 100 % of control and 91 % of control | dose: 200.0 mg/kg/injection, schedule: Q04DX003 (ip), vehicle: other 91 % of control | [5] 96 % of control | dose: 400.0 mg/kg/injection, schedule: Q01DX009 (ip), vehicle: other 92 % of control and 86 % of control | [6] 95 % of control | dose: 400.0 mg/kg/injection, schedule: Q04DX002 (ip), vehicle: other 91 % of control and 92 % of control | dose: 400.0 mg/kg/injection, schedule: Q04DX003 (ip), vehicle: other 95 % of control

O=C(c1ccccc1)c1cccc(C(Br)Br)c1
inactive: [14] 96 % of control | dose: 200.0 mg/kg/injection, schedule: Q04DX003 (ip), vehicle: saline with Tween-80 95 % of control | dose: 400.0 mg/kg/injection, schedule: Q04DX003 (ip), vehicle: saline with Tween-80 95 % of control

CCc1ccccc1NC(=O)NCc1ccco1
inactive: [7] 101 % of control | [8] 92 % of control

CCN=C(c1ccc(NC(=O)c2ccc(C(=O)Nc3ccc(C(=NCC)N(CC)C(=O)NC(C)C)cc3)cc2)cc1)N(CC)C(=O)NC(C)C
inactive: dose: 6.0 mg/kg/injection, schedule: Q01DX015 (ip), vehicle: methylcellulose (MC) 89 % of control | dose: 25.0 mg/kg/injection, schedule: Q01DX015 (ip), vehicle: methylcellulose (MC) 102 % of control | dose: 37.0 mg/kg/injection, schedule: Q01DX015 (ip), vehicle: methylcellulose (MC) 96 % of control
